In US12649750B2, “Macrocyclic compounds, compositions, and methods of using thereof” (Sionna Therapeutics Inc., priority 2022, dated 2026):

These compounds were tested against T1, NBD1 (Homo sapiens, UniProt P13569) (assay: Aggregation analysis using differential static light scattering (DSLS), thermal stability of NBD1 (ΔTagg)). Details: ΔTagg versus DMSO control, NBD1 0.2 mg/ml.
T1 construct: Purified recombinant NBD1 was produced using previously described methods; made in house
T1 sequence (P13569 423-646 limits assumed): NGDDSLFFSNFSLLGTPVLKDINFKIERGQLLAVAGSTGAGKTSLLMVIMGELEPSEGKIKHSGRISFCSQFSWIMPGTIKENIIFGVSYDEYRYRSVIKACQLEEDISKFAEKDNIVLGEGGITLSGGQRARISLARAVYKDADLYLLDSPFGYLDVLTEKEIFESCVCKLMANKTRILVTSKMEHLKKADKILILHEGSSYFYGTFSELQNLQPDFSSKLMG
Type: binding
Summary of the method: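 Thermal aggregation of purified NBD1 was followed by static light scattering during a 1° C./min ramp to 70° C. Protein was at 0.2 mg/ml with 2 mM ATP at pH7.6. Each compound's Tagg was referenced to DMSO controls.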
Cn1nc2nc1-c1cc(ccc1F)Sc1c(F)c(F)c3[nH]cc(CC(=O)O)c3c1CCS(=O)(=O)CC(C)(C)CCC[C@]2(C)c1ccccc1 [Compound 325, 2-[(6R)-21,22,28-Trifluoro-3,6,10,10-tetramethyl-12,12-dioxo-6-phenyl-12λ6,24-dithia-3,4,19,30-tetrazapentacyclo[23.3.1.12,5.015,23.016,20]triaconta-1(29),2(30),4,15,17,20,22,25,27-nonaen-17-yl]acetic Acid] was tested, and the “DSLS 3D (100 μM ΔT)” value was “B (a value above 5 °C and less than or equal to 10 °C is marked “B”)”. Cn1nc2nc1-c1cc(ccn1)S(=O)(=O)c1c(F)cc3[nH]cc(CC(=O)O)c3c1CCS(=O)(=O)CC(C)(C)CCC[C@]2(C)c1ccccc1 [Compound 366, 2-[(6R)-22-Fluoro-3,6,10,10-tetramethyl-12,12,24,24-tetraoxo-6-phenyl-12λ6,24λ6-dithia-3,4,19,28,30-pentazapentacyclo[23.3.1.12,5.015,23.016,20]triaconta-1(29),2(30),4,15,17,20,22,25,27-nonaen-17-yl]acetic acid] was tested, and the “DSLS 3D (100 μM ΔT)” value was “A (an ΔTagg value less than or equal to 5 °C is marked “A”)”. In the case of C[C@@H](Cc1cccc([C@@]2(C)CCCC(C)(C)CS(=O)(=O)CCc3c(c(F)cc4[nH]ncc34)Oc3ccc(F)c(c3)-c3nc2nn3C)c1)C(=O)O [Compound 359, (2S)-3-[3-[(6R)-22,28-Difluoro-3,6,10,10-tetramethyl-12,12-dioxo-24-oxa-12λ6-thia-3,4,18,19,30-pentazapentacyclo[23.3.1.12,5.015,23.016,20]triaconta-1(29),2(30),4,15,17,20,22,25,27-nonaen-6-yl]phenyl]-2-methyl-propanoic Acid], the “DSLS 3D (100 μM ΔT)” value was “B (a value above 5 °C and less than or equal to 10 °C is marked “B”)”. In the case of Cn1nc2nc1-c1cc(ccn1)Sc1c(F)cc3[nH]ccc3c1CCS(=O)(=O)CC(C)(C)CCC[C@]2(C)c1cccc(C[C@@H](O)CO)c1 [Compound 336B, (2R)-3-[3-[(6R)-22-Fluoro-3,6,10,10-tetramethyl-12,12-dioxo-12λ6,24-dithia-3,4,19,28,30-pentazapentacyclo[23.3.1.12,5.015,23.016,20]triaconta-1(29),2(30),4,15,17,20,22,25,27-nonaen-6-yl]phenyl]propane-1,2-diol], the “DSLS 3D (100 μM ΔT)” value was “A (an ΔTagg value less than or equal to 5 °C is marked “A”)”. In the case of Cn1nc2nc1-c1cc(ccc1F)Oc1c(F)cc3[nH]ccc3c1CCS(=O)(=O)CC(C)(C)COCC2(C)c1cccc(CCC(=O)O)c1 (single isomer, unassigned) [Compound 89B, 3-[3-(22,28-difluoro-3,6,10,10-tetramethyl-12,12-dioxo-8,24-dioxa-12λ6-thia-3,4,19,30-tetrazapentacyclo[23.3.1.12,5.015,23.016,20]triaconta-1(29),2(30),4,15,17,20,22,25,27-nonaen-6-yl)phenyl]propanoic Acid], the “DSLS 3D (100 μM ΔT)” value was “A (an ΔTagg value less than or equal to 5 °C is marked “A”)”. In the case of C[C@@H](Cc1cccc(C2(C)CCCC(C)(C)CS(=O)(=O)CCc3c(c(F)cc4[nH]ccc34)S(=O)(=O)c3ccnc(c3)-c3nc2nn3C)n1)C(=O)O (stereo partly drawn) [Compound 315E, (2S)-3-[6-(22-fluoro-3,6,10,10-tetramethyl-12,12,24,24-tetraoxo-12λ6,24λ6-dithia-3,4,19,28,30-pentazapentacyclo[23.3.1.12,5.015,23.016,20]triaconta-1(29),2(30),4,15,17,20,22,25,27-nonaen-6-yl)-2-pyridyl]-2-methyl-propanoic Acid], the “DSLS 3D (100 μM ΔT)” value was “A (an ΔTagg value less than or equal to 5 °C is marked “A”)”. For C[C@@H](Cc1cccc([C@@]2(C)CCCC(C)(C)CS(=O)(=O)CCc3c(c(F)cc4[nH]ccc34)[S+]([O-])c3cccc(c3)-c3coc2n3)c1)C(=O)O (single isomer, unassigned) [Compound 330], the “DSLS 3D (100 μM ΔT)” value was “A (an ΔTagg value less than or equal to 5 °C is marked “A”)”. With Cn1nc2nc1-c1cc(ccn1)Sc1c(F)c(F)c3[nH]ccc3c1CCS(=O)(=O)CC(C)(C)CCC[C@]2(C)c1cccc(CC2(C(=O)O)CC2)c1 [Compound 308, 1-[[3-[(6R)-21,22-difluoro-3,6,10,10-tetramethyl-12,12-dioxo-12λ6,24-dithia-3,4,19,28,30-pentazapentacyclo[23.3.1.12,5.015,23.016,20]triaconta-1(29),2(30),4,15,17,20,22,25,27-nonaen-6-yl]phenyl]methyl]cyclopropanecarboxylic acid] the “DSLS 3D (100 μM ΔT)” value was “B (a value above 5 °C and less than or equal to 10 °C is marked “B”)”. In the case of Cn1nc2nc1-c1cc(ccn1)S(=O)(=O)c1c(F)cc3[nH]ccc3c1CCS(=O)(=O)CC(C)(C)CCC[C@]2(C)c1cccc(C[C@H](O)CO)c1 [Compound 335, (2S)-3-[3-[(6R)-22-Fluoro-3,6,10,10-tetramethyl-12,12,24,24-tetraoxo-12λ6,24λ6-dithia-3,4,19,28,30-pentazapentacyclo[23.3.1.12,5.015,23.016,20]triaconta-1(29),2(30),4,15,17,20,22,25,27-nonaen-6-yl]phenyl]propane-1,2-diol], the “DSLS 3D (100 μM ΔT)” value was “A (an ΔTagg value less than or equal to 5 °C is marked “A”)”. With C[C@@H](Cc1cccc([C@@]2(C)CCCC(C)(C)CS(=O)(=O)CCc3c(c(F)c(F)c4[nH]ccc34)Cc3ccnc(c3)-c3nc2nn3C)c1)C(=O)O [Compound 304, (2S)-3-[3-[(6R)-21,22-Difluoro-3,6,10,10-tetramethyl-12,12-dioxo-12λ6-thia-3,4,19,28,30-pentazapentacyclo[23.3.1.12,5.015,23.016,20]triaconta-1(29),2(30),4,15,17,20,22,25,27-nonaen-6-yl]phenyl]-2-methyl-propanoic Acid] the “DSLS 3D (100 μM ΔT)” value was “B (a value above 5 °C and less than or equal to 10 °C is marked “B”)”. For Cn1nc2nc1-c1cc(ccc1F)Oc1c(F)cc3[nH]ccc3c1CCS(=O)(=O)CC(C)(C)CCCC2(C)c1cccc(C(O)CO)c1 (single isomer, unassigned) [Compound 90B, 1-[3-(22,28-difluoro-3,6,10,10-tetramethyl-12,12-dioxo-24-oxa-12λ6-thia-3,4,19,30-tetrazapentacyclo[23.3.1.12,5.015,23.016,20]triaconta-1(29),2(30),4,15,17,20,22,25,27-nonaen-6-yl)phenyl]ethane-1,2-diol], the “DSLS 3D (100 μM ΔT)” value was “A (an ΔTagg value less than or equal to 5 °C is marked “A”)”. In the case of C[C@H](Cc1cccc([C@@]2(C)CCCC(C)(C)CS(=O)(=O)CCc3c(c(F)cc4[nH]ccc34)S(=O)(=O)c3cc(c(F)cc3N)-c3nc2nn3C)c1)C(=O)O [Compound 379C, (2R)-3-[3-[(6R)-26-Amino-22,28-difluoro-3,6,10,10-tetramethyl-12,12,24,24-tetraoxo-12λ6,24λ6-dithia-3,4,19,30-tetrazapentacyclo[23.3.1.12,5.015,23.016,20]triaconta-1(29),2(30),4,15,17,20,22,25,27-nonaen-6-yl]phenyl]-2-methyl-propanoic acid], the “DSLS 3D (100 μM ΔT)” value was “A (an ΔTagg value less than or equal to 5 °C is marked “A”)”. CNC(=O)[C@@H](C)Cc1cccc([C@@]2(C)CCCC(C)(C)CS(=O)(=O)CC(NC)c3c(c(F)cc4[nH]ccc34)Sc3ccc(F)c(c3)-c3nc2nn3C)c1 (single isomer, unassigned) [Compound 368A] was tested, and the “DSLS 3D (100 μM ΔT)” value was “B (a value above 5 °C and less than or equal to 10 °C is marked “B”)”. Cn1nc2nc1-c1cc(ccn1)Sc1c(F)cc3[nH]ccc3c1CCS(=O)(=O)CC(C)(C)CCC[C@]2(C)c1cccc(C[C@H](O)CO)c1 [Compound 333, (2S)-3-[3-[(6R)-22-Fluoro-3,6,10,10-tetramethyl-12,12-dioxo-12λ6,24-dithia-3,4,19,28,30-pentazapentacyclo[23.3.1.12,5.015,23.016,20]triaconta-1(29),2(30),4,15,17,20,22,25,27-nonaen-6-yl]phenyl]propane-1,2-diol] was tested, and the “DSLS 3D (100 μM ΔT)” value was “B (a value above 5 °C and less than or equal to 10 °C is marked “B”)”. For Cn1nc2nc1-c1cc(ccn1)Cc1c(F)cc3[nH]ccc3c1CCS(=O)(=O)CC(C)(C)CCC[C@]2(C)c1cccc(C[C@H](O)CO)c1 [Compound 312, (2S)-3-[3-[(6R)-22-Fluoro-3,6,10,10-tetramethyl-12,12-dioxo-12λ6-thia-3,4,19,28,30-pentazapentacyclo[23.3.1.12,5.015,23.016,20]triaconta-1(29),2(30),4,15,17,20,22,25,27-nonaen-6-yl]phenyl]propane-1,2-diol], the “DSLS 3D (100 μM ΔT)” value was “A (an ΔTagg value less than or equal to 5 °C is marked “A”)”. O=C(O)CCc1cccc(C2CCCCCS(=O)(=O)CCc3c(c(F)cc4[nH]ccc34)Oc3ccc(F)c(c3)-c3ncc2[nH]3)c1 (stereo not shown) [Compound 36, 3-[3-(22,28-Difluoro-12,12-dioxo-24-oxa-12λ6-thia-3,19,30-triazapentacyclo[23.3.1.12,5.015,23.016,20]triaconta-1(29),2,4,15,17,20,22,25,27-nonaen-6-yl)phenyl]propanoic Acid] was tested, and the “DSLS 3D (100 μM ΔT)” value was “C (a value greater than 10 °C and less than or equal to 25 °C is marked “C”)”. With C[C@@H](Cc1cncc(C2(C)CCCC(C)(C)CS(=O)(=O)CCc3c(c(F)c(F)c4[nH]ccc34)Oc3ccnc(c3)-c3nc2nn3C)n1)C(=O)O (single isomer, unassigned) [Compound 300A] the “DSLS 3D (100 μM ΔT)” value was “A (an ΔTagg value less than or equal to 5 °C is marked “A”)”. CC1(C)CS(=O)(=O)CCc2c(c(F)cc3[nH]ccc23)Oc2ccc(F)c(c2)-c2ccnn2C(c2cccc(CCC(=O)O)c2)CCO1 (single isomer, unassigned) [Compound 88, 3-[3-(23,29-Difluoro-11,11-dimethyl-13,13-dioxo-10,25-dioxa-13λ6-thia-5,6,20-triazapentacyclo[24.3.1.02,6.016,24.017,21]triaconta-1(30),2,4,16,18,21,23,26,28-nonaen-7-yl)phenyl]propanoic Acid] was tested, and the “DSLS 3D (100 μM ΔT)” value was “A (an ΔTagg value less than or equal to 5 °C is marked “A”)”. With COCC(Cc1cccc([C@@]2(C)CCCC(C)(C)CS(=O)(=O)CCc3c(c(F)c(F)c4[nH]ccc34)[S+]([O-])c3ccnc(c3)-c3nc2nn3C)c1)C(=O)O (single isomer, unassigned) [Compound 374] the “DSLS 3D (100 μM ΔT)” value was “B (a value above 5 °C and less than or equal to 10 °C is marked “B”)”.
